These results are taken from US12384753B2, “17-beta-hydroxysteroid dehydrogenase type 13 inhibitors and methods of use thereof” (Enanta Pharmaceuticals, Inc., priority 2021, dated 2025).

Where only a bound is given, the exact number is not on record here.

Recombinant human HSD17B13, sequence (Q7Z5P4 20-300): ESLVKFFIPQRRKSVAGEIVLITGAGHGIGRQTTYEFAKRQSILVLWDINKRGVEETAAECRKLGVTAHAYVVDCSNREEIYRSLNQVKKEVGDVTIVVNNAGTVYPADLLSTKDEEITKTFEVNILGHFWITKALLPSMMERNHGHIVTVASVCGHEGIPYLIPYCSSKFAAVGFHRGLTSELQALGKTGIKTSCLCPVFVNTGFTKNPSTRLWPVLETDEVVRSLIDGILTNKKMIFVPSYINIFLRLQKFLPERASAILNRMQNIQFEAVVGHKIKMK

This experiment has as its target Recombinant human HSD17B13 (Homo sapiens (Human), UniProt Q7Z5P4). Description: HSD17B13 rapid-fire mass spectrometry assay (RF/MS assay). The experiment is classed as biochemical. The settings on record: inhibition of HSD17B13; LTB4 10 μM, NAD+ 0.5 mM, RT 3 h; IC50 ranges A-E. A digest of the protocol: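 Sf9-expressed human HSD17B13 (80 nM) with 10 μM LTB4 and 0.5 mM NAD+, incubated with compound (0–100 μM) for 3 h at RT in Tris pH 7.5/BSA/Tween-20. After formic acid quench, LTB4 conversion to 12-oxo-LTB4 measured by RapidFire MS/MS. IC50 from normalised residual activity, duplicates.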
With `CCC[C@H]1CC[C@H](c2ccc(-c3nc(S(=O)(=O)Nc4cc(F)c(C(=O)O)cc4OC)cs3)cc2)CC1` [Example 715], the IC50 is < 100 nM. Regarding `COc1cc(C(=O)O)ccc1NS(=O)(=O)c1csc(-c2cccc(O)c2)n1` [Example 146], the IC50 was in the range of 100 to 500 nM. To `COc1cc(C(=O)O)ccc1NS(=O)(=O)c1csc(-c2ccncc2)n1` [Example 100] belongs 1000 to 100000 nM; to `COc1cc(C(=O)O)ccc1NS(=O)(=O)c1csc(-c2ccc(-c3ccc4ccccc4c3)cc2)n1` [Example 404], < 100 nM. To `COc1cc(C(=O)O)c(F)cc1NS(=O)(=O)c1csc(-c2ccc(C3CCC(C)(C)CC3)c(C)c2F)n1` [Example 571] belongs < 100 nM; to `COc1cc(C(=O)O)c(F)cc1NS(=O)(=O)c1coc(-c2ccc(C3=CCC(C(F)(F)F)CC3)cc2C(F)(F)F)n1` (stereo not drawn) [Example 677], < 100 nM; to `COc1cc(C(=O)O)ccc1NS(=O)(=O)c1c[nH]c2ccccc12` [Example 137], 1000 to 100000 nM. Then `COc1cc(C(=O)O)c(F)cc1NS(=O)(=O)c1csc(-c2ccc(-c3ccc(C4=CCC(C(C)C)CC4)cc3C(F)(F)F)cc2C(F)(F)F)n1` (stereo not drawn) [Example 742], with 100 to 500 nM; and `COc1cc(C(=O)O)c(F)cc1NS(=O)(=O)c1csc(-c2ccc(-c3cccnc3)cc2)n1` [Example 526], with 100 to 500 nM. For the compound `COc1cc(C(=O)O)ccc1NS(=O)(=O)c1ccc(F)c(-c2ccc(C3CCCCC3)cc2)c1` [Example 437], the IC50 lay in the range of 100 to 500 nM. Regarding `CC[C@H]1CC[C@@H](c2ccc(-c3nc(S(=O)(=O)Nc4ccc(C(=O)O)cc4OC)co3)cc2)CC1` [Example 481], the IC50 was in the range of 100 to 500 nM. Then `COc1cc(C(=O)O)ccc1NS(=O)(=O)c1csc(-c2ccc(-c3ccccc3)nc2)n1` [Example 299], with 1000 to 100000 nM; and `COc1cc(C(=O)O)ccc1NS(=O)(=O)c1csc(-c2ccccc2C#N)n1` [Example 159], with 1000 to 100000 nM; and `COc1cc(C(=O)O)ccc1NS(=O)(=O)c1csc(N2CCN(C(=O)c3ccccc3)CC2)n1` [Example 287], with 1000 to 100000 nM.

As to `COc1cc(C(=O)O)c(F)cc1NS(=O)(=O)c1csc(C#CC2CCC(C)(C)CC2)n1` [Example 514], the IC50 is < 100 nM. To `COc1cc(C(=O)O)c(F)cc1NS(=O)(=O)c1csc(-c2ccc(-c3ccc(-c4ccc(C(F)(C(F)(F)F)C(F)(F)F)cc4)cc3C(F)(F)F)cc2C(F)(F)F)n1` [Example 797] belongs 100 to 500 nM; to `COc1cc(C(=O)O)c(NS(C)(=O)=O)cc1NS(=O)(=O)c1csc(-c2ccc(C3CCC(C)(C)CC3)cc2C(F)(F)F)n1` [Example 701], 1000 to 100000 nM; to `CCCCOc1c(F)c(-c2nc(S(=O)(=O)Nc3cc(F)c(C(=O)O)cc3OC)cs2)ccc1[C@H]1CC[C@H](C(C)C)CC1` [Example 589], 100 to 500 nM.

Regarding `COc1ccnc(C#Cc2nc(S(=O)(=O)Nc3ccc(C(=O)O)cc3OC)cs2)c1` [Example 245], the IC50 was 1000 to 100000 nM. Then `COc1cc(C(=O)O)c(F)cc1NS(=O)(=O)c1csc(-c2ccc(C3=CCC(C(C)(C)C)CC3)cc2C(F)(F)F)n1` (stereo not drawn) [Example 776], with < 100 nM; and `CCC1CC=C(c2ccc(-c3nc(S(=O)(=O)Nc4cc(F)c(C(=O)O)cc4OC)co3)cc2)CC1` (stereo not drawn) [Example 494], with < 100 nM. Then `COc1ccc(C#Cc2nc(S(=O)(=O)Nc3ccc(C(=O)O)cc3OC)cs2)cc1` [Example 177], with 100 to 500 nM; and `COc1cc(C(=O)O)ccc1NS(=O)(=O)c1csc(N2CCCCC2c2ccccc2)n1` (stereo not drawn) [Example 270], with 100 to 500 nM; and `COc1cc(C(=O)O)ccc1NS(=O)(=O)c1csc(N2CCCC(Cc3ccccc3)C2)n1` (stereo not drawn) [Example 258], with 500 to 1000 nM. Then `COc1cc(C(=O)O)ccc1NS(=O)(=O)c1csc(-c2cccc(C(F)(F)F)c2)n1` [Example 126], with 500 to 1000 nM; and `COc1cc(C(=O)O)c(F)cc1NS(=O)(=O)c1csc(-c2ccc(-c3ccncc3)cc2)n1` [Example 652], with 100 to 500 nM. Turning to `O=C(O)c1ccc(NS(=O)(=O)c2csc(N3CCOCC3)n2)cc1` [Example 57, 4-((2-morpholinothiazole)-4-sulfonamido)benzoic acid], the IC50 lay in the range of 1000 to 100000 nM. To `COc1cc(C(=O)O)ccc1NS(=O)(=O)c1cccc(-c2ccc(C3CCC(F)(F)CC3)cc2)c1F` [Example 476] belongs 100 to 500 nM; to `COc1cc(C(=O)O)c(F)cc1NS(=O)(=O)c1csc(-c2ccc(-c3ccc(-c4ccc(C5=CCC(C(C)(C)C)CC5)cc4C(F)(F)F)cc3C(F)(F)F)cc2C(F)(F)F)n1` (stereo not drawn) [Example 804], 1000 to 100000 nM; to `COc1cc(C(=O)O)c(F)cc1NS(=O)(=O)c1csc(-c2ccc(-c3ccc(C(F)(C(F)(F)F)C(F)(F)F)cc3)cc2C(F)(F)F)n1` [Example 795], < 100 nM.

In the case of `COc1cc(C(=O)O)ccc1NS(=O)(=O)c1csc(-c2ccc(C(F)(F)F)cc2)n1` [Example 98], the IC50 is 100 to 500 nM.

With `COc1cc(C(=O)O)c(F)cc1NS(=O)(=O)c1cnc(-c2ccc([C@H]3CC[C@@H](C(C)(C)C)CC3)cc2)s1` [Example 720], the IC50 lay within 100 to 500 nM. Then `COc1cc(C(=O)O)c(F)cc1NS(=O)(=O)c1csc(-c2ccc(-c3ccccn3)cc2)n1` [Example 635], with 100 to 500 nM; and `COc1cc(C(=O)O)ccc1NS(=O)(=O)c1csc(C#Cc2ccc(C#N)c(OC(F)(F)F)c2)n1` [Example 397], with < 100 nM; and `COc1cc(C(N)=O)ccc1NS(=O)(=O)c1cnc(-c2ccc(F)cc2)s1` [Example 120], with 1000 to 100000 nM. To `COc1cc(C(=O)O)c(F)cc1NS(=O)(=O)c1csc(-c2ccc(-c3ccc4c(c3)NCCO4)cc2)n1` [Example 653] belongs < 100 nM; to `COc1cc(C(=O)O)ccc1NS(=O)(=O)c1csc(C#Cc2ccccc2F)n1` [Example 204], < 100 nM. To `COc1cc(C(=O)O)c(F)cc1NS(=O)(=O)c1coc(-c2ccc(C3CCC4(CC3)OCCO4)cc2)n1` [Example 618] belongs < 100 nM.

Take `COc1cc(C(=O)O)ccc1NS(=O)(=O)c1coc(-c2ccc(C(C)C)cc2)n1` [Example 466, 4-((2-(4-isopropylphenyl)oxazole)-4-sulfonamido)-3-methoxybenzoic acid]: the IC50 was < 100 nM. With `COc1cc(C(=O)O)ccc1NS(=O)(=O)c1csc(-c2ccc(C3CCC(C(C)(C)C)CC3)cc2)n1` (stereo not drawn) [Example 353, 4-((2-(4-(4-(tert-butyl)cyclohexyl)phenyl)thiazole)-4-sulfonamido)-3-methoxybenzoic acid], the IC50 was < 100 nM.

On to `COc1cc(C(=O)O)c(F)cc1NS(=O)(=O)c1coc(-c2ccc([C@H]3CC[C@@H](C(F)(F)F)CC3)cc2C(F)(F)F)n1` [Example 678], for which the IC50 was < 100 nM. For `COc1cc(C(=O)O)ccc1N(C)S(=O)(=O)c1cnc(-c2ccc(F)cc2)s1` [Example 105], the IC50 was in the range of 1000 to 100000 nM.

Take `COc1cc(-c2ccc(C(=O)O)cc2)ccc1NS(=O)(=O)c1cnc(-c2ccc(F)cc2)s1` [Example 389, 4′-((2-(4-fluorophenyl)thiazole)-5-sulfonamido)-3′-methoxy-[1,1′-biphenyl]-4-carboxylic acid]: the IC50 fell in the range of 1000 to 100000 nM.

For `COc1cc(C(=O)O)ccc1NS(=O)(=O)c1cc(F)cc(-c2ccc(C3CCCCC3)cc2)c1` [Example 438], the IC50 was < 100 nM.

Consider `O=C(O)c1ccc(NS(=O)(=O)c2cnc(-c3ccc(F)cc3)s2)c(C2CC2)c1` [Example 44], for which the IC50 fell in the range of 1000 to 100000 nM.

For the compound `COc1cc(C(=O)O)c(F)cc1NS(=O)(=O)c1csc(-c2ccc(OC3CCCCC3)cc2)n1` [Example 763], the IC50 lay within 100 to 500 nM. To `COc1cc(C(=O)O)c(F)cc1NS(=O)(=O)c1csc(-c2ccc([C@H]3CC[C@H](C(C)(C)C)CC3)cc2)n1` [Example 762] belongs < 100 nM; to `COc1cc(C(=O)O)ccc1NS(=O)(=O)c1ccc(-c2cccc(F)c2)s1` [Example 208], < 100 nM; to `CN(C)S(=O)(=O)NC(=O)c1ccc(NS(=O)(=O)c2cnc(-c3ccc(F)cc3)s2)cc1` [Example 32], 1000 to 100000 nM. To `COc1cc(C(=O)O)ccc1NS(=O)(=O)c1ccc(-c2ccccc2C)s1` [Example 194] belongs 100 to 500 nM; to `COc1cc(C(=O)O)ccc1NS(=O)(=O)c1csc(C#CC2CC2)n1` [Example 214], < 100 nM.

Consider `COc1cc(C(=O)O)ccc1NS(=O)(=O)c1csc(-c2ccc(C3CCC(OC(F)(F)F)CC3)cc2)n1` (stereo not drawn) [Example 367], for which the IC50 is < 100 nM.

On to `CC[C@H]1CC[C@H](c2ccc(-c3nc4cc(S(=O)(=O)Nc5cc(F)c(C(=O)O)cc5OC)ccc4s3)cc2)CC1` [Example 632], for which the half-inhibitory concentration (IC50) fell in the range of 100 to 500 nM. Then `COc1cc(C(=O)O)c(F)cc1NS(=O)(=O)c1csc(-c2ccc(C3=CCC(C)(C)CC3)cc2C(F)(F)F)n1` [Example 522], with < 100 nM. For the compound `O=C(O)c1ccc(NS(=O)(=O)c2cnc(-c3ccc(F)cc3)s2)c2ncccc12` [Example 82], the concentration for half-maximal inhibition (IC50) was in the range of 1000 to 100000 nM. Then `COc1cc(C(=O)O)c(F)cc1NS(=O)(=O)c1csc(-c2ccc([C@H]3CC[C@H](C(C)C)CC3)cc2)n1` [Example 730], with < 100 nM; and `COc1cc(C(=O)O)c(Cl)cc1NS(=O)(=O)c1csc(-c2ccc(C3CCC(C)(C)CC3)cc2C(F)(F)F)n1` [Example 696], with 500 to 1000 nM; and `CCC1CC=C(c2ccc(-c3nc(S(=O)(=O)Nc4ccc(C(=O)O)cc4OC)co3)cc2)CC1` (stereo not drawn) [Example 487], with 100 to 500 nM. In the case of `COc1cc(C(=O)O)c(F)cc1NS(=O)(=O)c1cccc(-c2ccc([C@H]3CC[C@@H](C(C)(C)C)CC3)cc2)c1F` [Example 500], the IC50 was < 100 nM. Turning to `COc1cc(C(=O)O)c(F)cc1NS(=O)(=O)c1csc(-c2ccc(C3=CCC(C)(C)CC3)c(CO)c2)n1` [Example 529], the IC50 lay within 100 to 500 nM.

By IC50 is commonly meant the point on the concentration scale where inhibition reaches its midpoint.
